Assay results: BindingDB's records for doi:10.1021/jm050820s (Schering-Plough Research Institute, 2006)

Biological target: Genome polyprotein (Hepatitis C virus genotype 1a (isolate H77), UniProt P27958)
Test: Continuous Spectrophotometric Assay
Method: Proteolytic cleavage of the ester linkage between the Nva (L-norvaline) and the chromophore (PAP) was monitored for change in absorbance at 370 nm. Initial velocities were determined using linear regression and kinetic constants were obtained by fitting the data to the Michaelis-Menten equation.

Chain of Genome polyprotein (P27958 1027-1657 limits assumed): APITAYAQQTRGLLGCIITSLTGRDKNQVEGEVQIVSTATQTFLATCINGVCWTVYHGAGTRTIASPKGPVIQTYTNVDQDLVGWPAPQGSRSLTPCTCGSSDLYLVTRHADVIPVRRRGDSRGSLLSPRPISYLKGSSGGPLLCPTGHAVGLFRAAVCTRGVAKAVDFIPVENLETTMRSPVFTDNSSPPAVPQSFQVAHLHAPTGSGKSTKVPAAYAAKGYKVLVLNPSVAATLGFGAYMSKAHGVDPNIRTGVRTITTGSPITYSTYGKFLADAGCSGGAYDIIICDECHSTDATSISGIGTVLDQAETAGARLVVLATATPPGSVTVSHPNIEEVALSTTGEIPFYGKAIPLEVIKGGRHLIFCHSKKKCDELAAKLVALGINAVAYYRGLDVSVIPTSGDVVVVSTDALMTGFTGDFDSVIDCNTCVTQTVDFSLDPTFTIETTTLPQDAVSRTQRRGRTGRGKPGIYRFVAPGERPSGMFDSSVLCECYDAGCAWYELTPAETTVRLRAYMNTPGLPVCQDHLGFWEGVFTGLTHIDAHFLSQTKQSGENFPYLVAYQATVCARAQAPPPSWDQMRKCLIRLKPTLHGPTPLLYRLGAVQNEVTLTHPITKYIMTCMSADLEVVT

`CCCC(NC(=O)[C@@H]1C[C@@H]2CN1C(=O)[C@H](C1CCCCC1)NC(=O)Cc1cccc(c1)OCCCS2)C(=O)C(=O)NCC(=O)N[C@H](C(=O)N(C)C)c1ccccc1` (stereo partly drawn) [(2S)-({N-[3-({[(7R,9S,12S)-12-cyclohexyl-11,14-dioxo-2-oxa-6-thia-10,13-diazatricyclo[14.3.1.17,10]henicosa-1(20),16,18-trien-9-yl]carbonyl}amino)-2-oxohexanoyl]glycyl}amino)(phenyl)acetic acid N,N-dimethyl amide] showed a Ki (pH 6.5, 30 °C) of 10 nM.

`CCCC(NC(=O)[C@@H]1C[C@@H]2CN1C(=O)[C@H](C1CCCCC1)NC(=O)Cc1cccc(c1)OCCCS2(=O)=O)C(=O)C(=O)NCC(=O)N[C@H](C(=O)N(C)C)c1ccccc1` (stereo partly drawn) [(2S)-({N-[3-({[(7R,9S,12S)-12-cyclohexyl-6,6-dioxido-11,14-dioxo-2-oxa-6-thia-10,13-diazatricyclo[14.3.1.17,10]henicosa-1(20),16,18-trien-9-yl]carbonyl}amino)-2-oxohexanoyl]glycyl}amino)(phenyl)acetic acid N,N-dimethyl amide] gave a Ki of 3300 nM.

For `CCC[C@H](NC(=O)[C@@H]1C[C@@H]2CN1C(=O)[C@H](C(C)(C)C)NC(=O)Cc1cccc(c1)OCCCO2)C(=O)C(=O)NCC(=O)N[C@H](C(=O)N(C)C)c1ccccc1` [(2S)-({N-[(3S)-3-({[(7R,9S,12S)-12-tert-butyl-11,14-dioxo-2,6-dioxa-10,13-diazatricyclo[14.3.1.17,10]henicosa-1(20),16,18-trien-9-yl]carbonyl}amino)-2-oxohexanoyl]glycyl}amino)(phenyl)acetic acid N,N-dimethyl amide], the Ki (pH 6.5, 30 °C) was 15 nM.

`CCC[C@H](NC(=O)[C@@H]1C[C@H]2CN1C(=O)[C@H](C(C)(C)C)NC(=O)Cc1cccc(c1)OCCCO2)C(=O)C(=O)NCC(=O)N[C@H](C(=O)N(C)C)c1ccccc1` [(2S)-({N-[(3S)-3-({[(7S,9S,12S)-12-tert-butyl-11,14-dioxo-2,6-dioxa-10,13-diazatricyclo[14.3.1.17,10]henicosa-1(20),16,18-trien-9-yl]carbonyl}amino)-2-oxohexanoyl]glycyl}amino)(phenyl)acetic acid N,N-dimethyl amide] was tested, and the Ki (pH 6.5, 30 °C) was 130 nM.

`CCCC(NC(=O)[C@@H]1C[C@@H]2CN1C(=O)[C@H](C1CCCCC1)NC(=O)Cc1cccc(c1)OCCCCO2)C(=O)C(=O)NCC(=O)N[C@H](C(=O)N(C)C)c1ccccc1` (stereo partly drawn) [3-{[(5S,8S,10R)-5-cyclohexyl-3,6-dioxo-11,16-dioxa-4,7-diazatricyclo[15.3.1.1^{7,10}]docosa-1(20),17(21),18-trien-8-yl]formamido}-N-({[(S)-(dimethylcarbamoyl)(phenyl)methyl]carbamoyl}methyl)-2-oxohexanamide] was tested, and the Ki (pH 6.5, 30 °C) was 7 nM.

`CCCC(NC(=O)[C@@H]1C[C@@H]2CN1C(=O)[C@H](C1CCCCC1)NC(=O)Cc1cccc(c1)OCCCN2S(=O)(=O)c1ccccc1)C(=O)C(=O)NCC(=O)N[C@H](C(=O)N(C)C)c1ccccc1` (stereo partly drawn) [3-{[(7R,9S,12S)-6-(benzenesulfonyl)-12-cyclohexyl-11,14-dioxo-2-oxa-6,10,13-triazatricyclo[14.3.1.1^{7,10}]henicosa-1(20),16,18-trien-9-yl]formamido}-N-({[(S)-(dimethylcarbamoyl)(phenyl)methyl]carbamoyl}methyl)-2-oxohexanamide] gave a Ki of 36 nM.

`CCCC(NC(=O)[C@@H]1C[C@@H]2CN1C(=O)[C@H](C1CCCCC1)NC(=O)Cc1cccc(c1)OCCO2)C(=O)C(=O)NCC(=O)N[C@H](C(=O)N(C)C)c1ccccc1` (stereo partly drawn) [3-{[(6R,8S,11S)-11-cyclohexyl-10,13-dioxo-2,5-dioxa-9,12-diazatricyclo[13.3.1.1^{6,9}]icosa-1(19),15,17-trien-8-yl]formamido}-N-({[(S)-(dimethylcarbamoyl)(phenyl)methyl]carbamoyl}methyl)-2-oxohexanamide] showed a Ki (pH 6.5, 30 °C) of 30 nM.
